Assay results as given in US6458585B1, “Cytokine-free culture of dendritic cells” (Nexell Therapeutics Inc., priority 1996, dated 2002).

How the values were obtained:
Bulk PBMNC = assay: Morphologically identified dendritic cells in bulk PBMNC cultures with non-cytokine additives; format: cell-based, human
Protocol: Cytofunnels were attached to microscope slides. 50,000 to 100,000 cells were removed from each culture and resuspended in approximately 100 to 200 ul of PBS-CMF. Slides were placed in the Cytospin® centrifuge and spun at 100 rpm for 4 min. Cytofunnels were removed from the slides and the slides were air dried for 1 minute. Ten drops of Wright-Geimsa stain were placed onto each slide and allowed to fix for 1 to 2 minutes. Ten drops of water were added to each slide and allowed to sit for 2 to 4 minutes. The slides were rinsed and air dried.
Reading of Cytospin Slides: Slides were read under phase contrast microscopy, 40× and 60× oil magnification. One hundred cells were identified and characterized morphologically as either dendritic cells or non-dendritic cells (lymphocytes and monocyte, or CD34+-derived cells in those cases). Digital images were taken using a color monitor and color video printer.
Culture of Bulk PBMNC: PBMNC cells were cultured in X-VIVO 15™ supplemented with 2 mM L- glutamine. Cultures were initiated at 5×^05 cells/ml in PL2417 gas-permeable containers (20 ml). GM-CSF and IL-4 were added to the cultures at final concentrations of 50 ng/ml and 1000 U/ml or non-cytokine additives such as Vitamin D3 at 2.5 uM, Vitamin E at 0.1%, Linoleic Acid at 5 ug/ml, or Ca++ Ionophore at 10 mM. Addition and subtraction of cells, media, and growth factors to and from PL2417 gas-permeable containers was accomplished by spiking a Sampling Site Coupler into the sample port of the container followed by use of syringes and needles. Cells were cultured in a 5% CO2, ambient O2, 37° C. humidified incubator for 7 days.
(§1) Cytospin slide preparation, Wright-Geimsa and immunohistochemical staining of the cultured cells were conducted as described in Example 1 and 2 above. Mixed lymphocyte reactions (MLR's) were setup using T cells (responders) and dendritic cell enriched cultures (stimulators) from bulk PBMNC cultures, as described above in Example 1.

T cells = assay: Allogeneic MLR with bulk PBMNC cultures grown with non-cytokine additives; format: cell-based, human
Protocol: MLR's were setup using T cells as responders and dendritic cell enriched cultures as antigen presenters. Sheep red blood cells were prepared and used to erythrocyte rosette T cells from a MNC preparation as described in “Current Protocols in Immunology”, John Wiley & Sons Inc, 1995. Vol. 2, 7.2.1-7.2.4. Erythrocyte+(E+ ) T cells were resuspended to 1×10^6 cells/ml in RPMI 1640/10% FCS. Dendritic cells were resuspended to 1×10^6 cells/ml in RPMI 1640/10% FCS and mitomycin C was added at 25 ug/ml to inhibit proliferation. The tubes were incubated at 37° C. for 30 min. then washed 3 times with PBS-CMF/1% HA. […] […] The appropriate control wells were also prepared. Plates were incubated for 4 or 5 days at 37° C.
Each well was pulsed with 1 uCi of ^3H-thymidine in RPMI 1640/10% FCS. Plates were incubated overnight at 37° C.
Plates were harvested onto glass fiber filter strips using a cell harvester. Discs were placed into scintillation vials containing scintillation cocktail and samples were counted using a beta radiation counter.
as §1
The functional capacity of cultured cells to induce T cell proliferation was measured in an allogeneic MLR. […] At the greatest ratio of 1:100, the differences in capacity to induce T cell proliferation is marginal between the GM-CSF/IL-4 cultured cells and the non-cytofine additive cultured cells.

CCCCC/C=C\C/C=C\CCCCCCCC(=O)O [Linoleic Acid]
% DC (Bulk PBMNC; Day 7): 5.00%
TOTAL # OF DC (Bulk PBMNC; Day 7, projected in culture): 4.63E+05
fold fewer DC (average total number projected in culture) than GM-CSF/IL-4 cultures (Bulk PBMNC; day 7): approximately 4 fold
Allogeneic MLR. Increase Over Background Proliferation (T cells; Day 7, Cell Culture:T cell Ratio 1:1): 6.1
Allogeneic MLR. Increase Over Background Proliferation (T cells; Day 7, Cell Culture:T cell Ratio 1:10): 3.1
Allogeneic MLR. Increase Over Background Proliferation (T cells; Day 7, Cell Culture:T cell Ratio 1:100): 1.1
